Laboratory results taken from paper PMC7691360, “Synthesis of novel cytotoxic tetracyclic acridone derivatives and study of their molecular docking, ADMET, QSAR, bioactivity and protein binding properties” (Scientific Reports, 2020).

Legend:
[1] = test system: MDA-MB-231 cells; experiment: MTT cytotoxicity assay against MDA-MB-231; format: cell-based; settings: Homo sapiens, 48 h, read-out: Percentage of inhibition against treated concentrations; for activity at 1 µM: MDAMB231, 1 µM; for activity at 5 µM: MDAMB231, 5 µM; for activity at 10 µM: MDAMB231, 10 µM; for activity at 25 µM: MDAMB231, 25 µM; for activity at 50 µM: MDAMB231, 50 µM
Description: (§1) Anticancer activity of 7a–s has been evaluated by MTT [3-(4,5-dimethylthiazol-2-yl)-2,5-diphenyl-tetrazolium bromide] assay and the cell lines HT29 (ATCC: HTB-38), MDA-MB-231 (ATCC: HTB-26), HEK293T (ATCC: CRL-3216) were procured from American type cell culture collection (ATCC), Manassas, USA and other chemicals were procured from Sigma-Aldrich. Then absorbance (used as a measure of cell proliferation) was measured at 570 nm with a kinetic micro-plate reader (BioTek, Winooski, Vermont).
(§2) Having synthesized a series of the title compounds, all of them were screened for their in vitro anticancer profiles against a panel of human colorectal adenocarcinoma (HT29), human breast adenocarcinoma (MDA-MB-231) and mutated Human embryonic kidney 293 (HEK293T) cancer cell lines by using MTT colourmetric assay as per Johan van Meerloo protocol. The three cell lines were cultured in […] medium and supplemented with 10% FBS followed by 100 units/mL penicillin/ streptomycin and were cultured at 37 °C in 5% CO2. Cell proliferation of the growing cells was measured in terms of logarithmic standards. Analytically, all the cultured cells were plated onto 96 well plates at a starting density of 10^5 cells. Then all the cells were treated with title compounds 7a–s for a period of 48 h with different concentrations. After this incubation cell proliferation inhibition was determined by MTT assay and all the experiments were conducted in triplicates and readings were presented as mean ± SD and provided in Tables 1, 2 and 3.

[2] = test system: HEK293T cells; experiment: MTT cytotoxicity assay against HEK293T; format: cell-based; settings: Homo sapiens, HEK-293T, 48 h, read-out: Percentage of inhibition against treated concentrations
Description: as §1, §2

[3] = test system: HT29 cells; experiment: MTT cytotoxicity assay against HT29; format: cell-based; settings: Homo sapiens, 48 h, read-out: Percentage of inhibition against treated concentrations; for activity at 1 µM: HT-29, HT29, 1 µM; for activity at 5 µM: HT-29, HT29, 5 µM; for activity at 10 µM: HT-29, HT29, 10 µM; for activity at 25 µM: HT-29, HT29, 25 µM; for activity at 50 µM: HT-29, HT29, 50 µM
Description: as §1, §2

melting point [°C] | Structure (SMILES) | activity at 1 µM [1] [%] | activity at 5 µM [1] [%] | activity at 10 µM [1] [%] | activity at 25 µM [1] [%] | activity at 50 µM [1] [%] | activity at 1 µM [2] [%] | activity at 5 µM [2] [%] | activity at 10 µM [2] [%] | activity at 25 µM [2] [%] | activity at 50 µM [2] [%] | activity at 1 µM [3] [%] | activity at 5 µM [3] [%] | activity at 10 µM [3] [%] | activity at 25 µM [3] [%] | activity at 50 µM [3] [%]
232 to 234 | O=C(c1ccccn1)N1CCn2c3ccccc3c(=O)c3cccc1c32 [Compound 7a, 3-Picolinoyl-2,3-dihydropyrazino[3,2,1-de]acridin-7(1H)-one] | 84.42 ± 0.35 | 55.22 ± 0.46 | 44.52 ± 0.29 | 25 ± 0.27 | 14.7 ± 0.42 | 99.93 ± 0.11 | 98.52 ± 0.96 | 97.63 ± 0.45 | 96.81 ± 0.2 | 57 ± 0.81 | 78.91 ± 0.42 | 57.61 ± 0.39 | 44.1 ± 0.86 | 14.9 ± 0.36 | 8.77 ± 0.72
– | O=C(c1ccsc1)N1CCn2c3ccccc3c(=O)c3cccc1c32 [Compound 7h, 3-(Thiophene-3-carbonyl)-2,3-dihydropyrazino[3,2,1-de]acridin-7(1H)-one] | 82.62 ± 0.41 | 53.8 ± 0.75 | 42.4 ± 0.49 | 21.4 ± 0.29 | 12.6 ± 0.72 | 92.81 ± 0.18 | 89.61 ± 0.31 | 86.2 ± 0.66 | 78.45 ± 0.18 | 46.23 ± 0.43 | 87.92 ± 0.24 | 62.4 ± 0.68 | 50.2 ± 0.65 | 29.5 ± 0.51 | 17.8 ± 0.65
233 to 235 | O=C(c1ccncc1)N1CCn2c3ccccc3c(=O)c3cccc1c32 [Compound 7c, 3-Isonicotinoyl-2,3 dihydropyrazino[3,2,1-de]acridin-7(1H)-one] | 86.8 ± 0.96 | 57.39 ± 0.32 | 47.2 ± 0.93 | 38.69 ± 0.28 | 22.8 ± 0.89 | 96.63 ± 0.53 | 94.28 ± 0.53 | 90.18 ± 0.38 | 83.28 ± 0.21 | 49.08 ± 0.23 | 90.02 ± 0.31 | 66.2 ± 0.83 | 52.9 ± 0.84 | 40.37 ± 0.15 | 20.79 ± 0.08
252 to 254 | Cc1ccc(C(=O)N2CCn3c4ccccc4c(=O)c4cccc2c43)nc1 [Compound 7f, 3-(5-Methylpicolinoyl)-2,3-dihydropyrazino[3,2,1-de]acridin-7(1H)-one] | 83.22 ± 0.21 | 54.18 ± 0.35 | 43.7 ± 0.54 | 23.3 ± 0.26 | 13.8 ± 0.73 | 92.96 ± 0.52 | 90.92 ± 0.52 | 88.07 ± 0.68 | 80.53 ± 0.41 | 47.46 ± 0.38 | 86.92 ± 0.24 | 61.4 ± 0.68 | 49.24 ± 0.05 | 29.09 ± 0.18 | 17.1 ± 0.65
– | O=C(CC1CC1)N1CCn2c3ccccc3c(=O)c3cccc1c32 [Compound 7d, 3-(2-Cyclopropylacetyl)-2,3-dihydropyrazino[3,2,1-de]acridin-7(1H)-one] | 85.23 ± 0.73 | 55.73 ± 0.21 | 45.6 ± 0.98 | 28.6 ± 0.43 | 16.83 ± 0.16 | 99.76 ± 0.56 | 98.09 ± 0.42 | 97.1 ± 0.88 | 96.35 ± 0.19 | 56.8 ± 0.69 | 88.71 ± 0.78 | 63.1 ± 0.71 | 50.91 ± 0.38 | 29.68 ± 0.23 | 18 ± 0.39
246 to 248 | Cc1cccc(C(=O)N2CCn3c4ccccc4c(=O)c4cccc2c43)n1 [Compound 7e, 3-(6-Methylpicolinoyl)-2,3-dihydropyrazino[3,2,1-de]acridin-7(1H)-one] | 82.18 ± 0.79 | 52.9 ± 0.75 | 42.1 ± 0.52 | 15.83 ± 0.14 | 11.3 ± 0.22 | 98.73 ± 0.97 | 97.08 ± 0.25 | 95.2 ± 0.76 | 91.72 ± 0.35 | 54 ± 0.77 | 84.9 ± 0.94 | 60.82 ± 0.33 | 49.1 ± 0.85 | 27.6 ± 0.35 | 16.3 ± 0.55
– | O=C(c1cccc(C(F)(F)F)n1)N1CCn2c3ccccc3c(=O)c3cccc1c32 [Compound 7i, 3-(6-(Trifluoromethyl)picolinoyl)-2,3-dihydropyrazino[3,2,1-de]acridin-7(1H)-one] | 84.78 ± 0.64 | 55.71 ± 0.32 | 45.6 ± 0.94 | 28.6 ± 0.3 | 16.8 ± 0.37 | 98.39 ± 0.19 | 95.7 ± 0.97 | 93.38 ± 0.64 | 88.56 ± 0.24 | 52.19 ± 0.26 | 83.56 ± 0.57 | 59.1 ± 0.75 | 46.5 ± 0.52 | 25.8 ± 0.28 | 12.2 ± 0.27
– | O=C(c1ccccc1C(F)(F)F)N1CCn2c3ccccc3c(=O)c3cccc1c32 [Compound 7m, 3-(2-(Trifluoromethyl)benzoyl)-2,3-dihydro-1H,7H-pyrazino[3,2,1-de]acridin-7-one] | 92.11 ± 0.88 | 71.15 ± 0.19 | 65 ± 0.46 | 56.9 ± 0.59 | 33.5 ± 0.57 | 97.18 ± 0.28 | 94.73 ± 0.82 | 92.36 ± 0.46 | 86.88 ± 0.3 | 51.2 ± 0.07 | 92.71 ± 0.01 | 76.71 ± 0.17 | 68.5 ± 0.72 | 57.33 ± 0.32 | 23.8 ± 0.33
– | COc1cccc2c1C(=O)c1c(O)c3c(c(O)c1C2=O)C[C@@](O)(C(=O)CO)C[C@@H]3O[C@H]1C[C@H](N)[C@H](O)[C@H](C)O1 [Doxorubicin, reference compound] | 93.65 ± 0.42 | 87.54 ± 0.67 | 79.98 ± 0.67 | 69.98 ± 0.47 | 41.2 ± 0.79 | 96.1 ± 0.83 | 95.66 ± 0.42 | 92.44 ± 0.56 | 85.27 ± 0.78 | 50.25 ± 0.14 | 97.09 ± 0.79 | 90.76 ± 0.83 | 82.92 ± 0.54 | 72.6 ± 0.83 | 42.8 ± 0.86
– | O=C(c1cccc(F)c1)N1CCn2c3ccccc3c(=O)c3cccc1c32 [Compound 7q, 3-(3-Fluorobenzoyl)-2,3-dihydro-1H,7H-pyrazino[3,2,1-de]acridin-7-one] | 93.46 ± 0.54 | 72.41 ± 0.45 | 66.2 ± 0.69 | 57.89 ± 0.12 | 34.1 ± 0.37 | 98.51 ± 0.12 | 96.21 ± 0.72 | 94.69 ± 0.34 | 91.34 ± 0.41 | 53.8 ± 0.58 | 94.96 ± 0.53 | 78.87 ± 0.43 | 70.57 ± 0.53 | 58.23 ± 0.29 | 25.3 ± 0.44
– | O=c1c2ccccc2n2c3c(cccc13)N(c1cccnc1)CC2 [Compound 7s, 3-(Pyridin-3-yl)-2,3-dihydropyrazino[3,2,1-de]acridin-7(1H)-one] | 88.63 ± 0.67 | 59.87 ± 0.26 | 49.22 ± 0.24 | 43.07 ± 0.28 | 25.4 ± 0.46 | 93.26 ± 0.88 | 91.78 ± 0.53 | 88.09 ± 0.54 | 80.57 ± 0.26 | 47.8 ± 0.79 | 84.78 ± 0.12 | 60.38 ± 0.24 | 48.4 ± 0.57 | 27.5 ± 0.35 | 15.2 ± 0.61
– | O=C(c1cccc(C(F)(F)F)c1)N1CCn2c3ccccc3c(=O)c3cccc1c32 [Compound 7n, 3-(3-(Trifluoromethyl)benzoyl)-2,3-dihydro-1H,7H-pyrazino[3,2,1-de]acridin-7-one] | 90.57 ± 0.59 | 69.83 ± 0.31 | 61.97 ± 0.44 | 54.23 ± 0.32 | 31.96 ± 0.16 | 96.84 ± 0.75 | 94.67 ± 0.59 | 92.02 ± 0.39 | 84.32 ± 0.28 | 49.69 ± 0.21 | 95.32 ± 0.73 | 79.12 ± 0.33 | 72.72 ± 0.33 | 59.26 ± 0.11 | 26.9 ± 0.84
